According to the NIST ThermoML archive (doi:10.1007/s10765-009-0625-z):
± gives the expanded uncertainty stated by the source.

Tests used:
[1] = Liquid, Constant-volume piezometry
[2] = xn = mol fraction of the nth substance listed; settings: Liquid

c1ccccc1 [benzene]
Settings	specific volume [m3/kg]
[1], 293.15 K, 101.33 kPa	0.001138 ± 2e-07

c1ccc(-c2ccccc2)cc1 [biphenyl] + c1ccc2[nH]ccc2c1
Settings	specific volume [m3/kg]
[2], 333.15 K, 100 kPa, Constant-volume piezometry, x2 = 0	0.0009985 ± 2e-07

[2], 100 kPa, x2 = 0
Settings	specific volume [m3/kg]
333.15 K	0.0009985 ± 9e-07
343.15 K	0.001007 ± 1e-06
353.15 K	0.001015 ± 1.1e-06
363.15 K	0.001024 ± 1.2e-06

c1ccc2[nH]ccc2c1 [1H-indole] + c1ccc(-c2ccccc2)cc1
specific volume [m3/kg], [2], 100 kPa
Settings	303.15 K	313.15 K	323.15 K	333.15 K	343.15 K	353.15 K	363.15 K
x1 = 0.25	–	–	0.0009769 ± 8e-07	0.0009848 ± 9e-07	0.0009924 ± 1e-06	0.001 ± 1.1e-06	0.001009 ± 1.2e-06
x1 = 0.5	0.0009477 ± 6e-07	0.000955 ± 7e-07	0.0009624 ± 8e-07	0.0009698 ± 9e-07	0.000977 ± 1e-06	0.0009848 ± 1e-06	0.0009924 ± 1.1e-06
x1 = 0.75	0.0009328 ± 6e-07	0.0009393 ± 7e-07	0.0009462 ± 7e-07	0.0009538 ± 8e-07	0.0009599 ± 9e-07	0.0009675 ± 1e-06	0.0009747 ± 1.1e-06
x1 = 1	–	–	0.0009295 ± 7e-07	0.000936 ± 8e-07	0.0009428 ± 9e-07	0.0009499 ± 1e-06	–

specific volume [m3/kg], [2], 333.15 K, Constant-volume piezometry
Settings	x1 = 0.25	x1 = 0.5	x1 = 0.75	x1 = 1
100 kPa	0.0009848 ± 3e-07	0.0009698 ± 3e-07	0.0009538 ± 3e-07	0.000936 ± 3e-07
10000 kPa	0.0009792 ± 3e-07	0.0009648 ± 3e-07	0.0009488 ± 3e-07	0.0009315 ± 3e-07
20000 kPa	0.0009737 ± 3e-07	0.0009601 ± 3e-07	0.0009442 ± 3e-07	0.0009273 ± 3e-07
30000 kPa	–	0.0009553 ± 4e-07	0.0009399 ± 4e-07	0.0009228 ± 4e-07
40000 kPa	–	0.0009507 ± 4e-07	0.0009356 ± 4e-07	0.0009192 ± 4e-07
50000 kPa	–	0.0009464 ± 5e-07	0.0009316 ± 5e-07	0.0009157 ± 5e-07
60000 kPa	–	0.0009423 ± 6e-07	0.0009278 ± 5e-07	–
70000 kPa	–	0.0009384 ± 6e-07	0.0009241 ± 6e-07	–
80000 kPa	–	0.0009347 ± 7e-07	0.0009205 ± 7e-07	–
90000 kPa	–	–	0.0009171 ± 8e-07	–
100000 kPa	–	–	0.0009139 ± 8e-07	–
110000 kPa	–	–	0.0009108 ± 9e-07	–
120000 kPa	–	–	0.0009077 ± 1e-06	–
130000 kPa	–	–	0.0009047 ± 1e-06	–
140000 kPa	–	–	0.000902 ± 1.1e-06	–
150000 kPa	–	–	0.0008991 ± 1.2e-06	–
160000 kPa	–	–	0.0008965 ± 1.2e-06	–
170000 kPa	–	–	0.0008939 ± 1.3e-06	–

Cc1ccc2ccccc2c1 [2-methylnaphthalene]
[1]
Settings	specific volume [m3/kg]
303.15 K, 100 kPa	0.001001 ± 9e-07
313.15 K, 100 kPa	0.001009 ± 2e-07
323.15 K, 100 kPa	0.001017 ± 1.2e-06
333.14 K, 100 kPa	0.001025 ± 3e-07
333.15 K, 100 kPa	0.001025 ± 3e-07
333.15 K, 10000 kPa	0.001018 ± 3e-07
333.15 K, 20000 kPa	0.001012 ± 4e-07
333.15 K, 30000 kPa	0.001007 ± 4e-07
333.15 K, 40000 kPa	0.001001 ± 5e-07
333.15 K, 50000 kPa	0.0009961 ± 5e-07
333.15 K, 60000 kPa	0.0009915 ± 6e-07
333.15 K, 70000 kPa	0.0009868 ± 7e-07
333.15 K, 80000 kPa	0.0009826 ± 7e-07
333.15 K, 90000 kPa	0.0009784 ± 8e-07
333.15 K, 100000 kPa	0.0009749 ± 9e-07
343.15 K, 100 kPa	0.001033 ± 3e-07
343.15 K, 10000 kPa	0.001026 ± 3e-07
343.15 K, 20000 kPa	0.00102 ± 3e-07
343.15 K, 30000 kPa	0.001014 ± 4e-07
343.15 K, 40000 kPa	0.001008 ± 5e-07
343.15 K, 50000 kPa	0.001003 ± 5e-07
343.15 K, 60000 kPa	0.0009977 ± 6e-07
343.15 K, 70000 kPa	0.0009932 ± 7e-07
343.15 K, 80000 kPa	0.0009885 ± 8e-07
343.15 K, 90000 kPa	0.0009843 ± 8e-07
343.15 K, 100000 kPa	0.0009802 ± 9e-07
343.15 K, 110000 kPa	0.0009764 ± 1e-06
343.15 K, 120000 kPa	0.0009725 ± 1e-06
343.15 K, 130000 kPa	0.0009689 ± 1.1e-06
343.15 K, 140000 kPa	0.0009655 ± 1.2e-06
353.15 K, 100 kPa	0.001041 ± 3e-07

c1ccc(-c2ccccc2)cc1 [biphenyl]
[1]
Settings	specific volume [m3/kg]
333.15 K, 100 kPa	0.0009985 ± 2e-07
343.15 K, 100 kPa	0.001007 ± 3e-07
353.15 K, 100 kPa	0.001015 ± 3e-07
353.15 K, 10000 kPa	0.001008 ± 3e-07
353.15 K, 20000 kPa	0.001002 ± 4e-07
353.15 K, 30000 kPa	0.0009956 ± 4e-07
363.15 K, 100 kPa	0.001024 ± 3e-07
363.16 K, 100 kPa	0.001024 ± 3e-07
363.16 K, 10000 kPa	0.001016 ± 3e-07
363.16 K, 20000 kPa	0.00101 ± 4e-07
363.16 K, 30000 kPa	0.001003 ± 4e-07
363.16 K, 40000 kPa	0.000997 ± 5e-07
363.16 K, 50000 kPa	0.0009917 ± 5e-07
363.16 K, 60000 kPa	0.0009864 ± 6e-07
363.16 K, 70000 kPa	0.0009815 ± 7e-07

Cc1ccc2ccccc2c1 [2-methylnaphthalene] + c1ccc2[nH]ccc2c1
[2], 100 kPa, x2 = 0
Settings	specific volume [m3/kg]
303.15 K	0.001001 ± 9e-07
313.15 K	0.001009 ± 1.1e-06
323.15 K	0.001017 ± 1.2e-06
333.15 K	0.001025 ± 1.4e-06
343.15 K	0.001033 ± 1.5e-06
353.15 K	0.001041 ± 1.7e-06

[2], 333.15 K, Constant-volume piezometry, x2 = 0
Settings	specific volume [m3/kg]
100 kPa	0.001025 ± 3e-07
10000 kPa	0.001018 ± 3e-07
20000 kPa	0.001012 ± 4e-07
30000 kPa	0.001007 ± 4e-07
40000 kPa	0.001001 ± 5e-07
50000 kPa	0.0009961 ± 5e-07
60000 kPa	0.0009915 ± 6e-07
70000 kPa	0.0009868 ± 7e-07
80000 kPa	0.0009826 ± 7e-07
90000 kPa	0.0009784 ± 8e-07
100000 kPa	0.0009749 ± 9e-07

c1ccc2[nH]ccc2c1 [1H-indole]
specific volume [m3/kg], [1]
Settings	323.15 K	333.15 K	343.15 K	353.15 K
100 kPa	0.0009295 ± 2e-07	0.000936 ± 3e-07	0.0009428 ± 3e-07	0.0009499 ± 3e-07
10000 kPa	–	0.0009315 ± 3e-07	0.0009381 ± 3e-07	0.0009449 ± 3e-07
20000 kPa	–	0.0009273 ± 3e-07	0.0009335 ± 3e-07	0.0009402 ± 3e-07
30000 kPa	–	0.0009228 ± 4e-07	0.0009292 ± 4e-07	0.0009358 ± 4e-07
40000 kPa	–	0.0009192 ± 4e-07	0.0009249 ± 4e-07	0.0009313 ± 4e-07
50000 kPa	–	0.0009157 ± 5e-07	0.0009209 ± 5e-07	0.0009273 ± 5e-07
60000 kPa	–	–	0.0009173 ± 6e-07	0.0009231 ± 6e-07
70000 kPa	–	–	0.000914 ± 6e-07	0.0009195 ± 6e-07
80000 kPa	–	–	0.0009103 ± 7e-07	0.0009158 ± 7e-07
90000 kPa	–	–	–	0.0009123 ± 8e-07
100000 kPa	–	–	–	0.0009091 ± 8e-07
110000 kPa	–	–	–	0.0009059 ± 9e-07
